{"source": "paper PMC11052077", "about": "“Discovery of Dolutegravir Derivative against Liver Cancer via Inducing Autophagy and DNA Damage” (Molecules, 2024)", "assay_type_in_all_cases": "cell-based, human", "key": {"LC3": {"system": "LC3", "assay": "Western blot, LC3", "conditions": "2, 4, 8 μM, 48 h, Huh7, western blot", "description": "To elucidate the impact of compounds 5e and 5p on the regulation of cell proliferation, we examined the expression levels of key proteins involved in cell growth processes, encompassing autophagy, apoptosis, cell cycle, and DNA damage (Figure 7).\nProtein expression levels were measured by western blot. Huh7 cells were cultured in 12-well plates and different concentrations (0, 2, 4, 8 μM) of 5e and 5p were added for 48 h. Proteins were extracted from whole cells using radio-immunoprecipitation assay (RIPA) buffer containing a protease/phosphatase inhibitor cocktail (CST). Then, 10–15% sodium dodecyl sulfate polyacrylamide gel electrophoresis and nitrocellulose membranes (Millipore) were employed to separate and collect proteins. Antibodies used include LC3 (3868s, CST), Caspase3 (9662, CST), cyclin D (2922s, CST), cyclin E (20808s, CST), γH2AX (9718s, CST), β-Catenin (9562s, CST), and β-actin (4967s, CST)."}, "Huh7 cells [1]": {"system": "Huh7 cells", "assay": "Cell cycle assay, PI staining flow cytometry", "conditions": "8 μM, 48 h", "description": "To further investigate the effects of compounds 5e and 5p on regulation of the cell cycle, we treated cancer cells with different concentrations of 5e or 5p for 48 h and then analyzed cell cycle distribution using flow cytometry.\nHuh7 cells were cultured in 6-well plates with a density of 3 × 10^5 cells/well. Cells were treated with different concentrations (0, 4, and 8 μM for Huh7) of 5e or 5p for 48 h respectively. Then the cell cycle was determined by PI staining using the flow cytometer(Thermo, Beijing, China)."}, "Huh7 cells [2]": {"system": "Huh7 cells", "assay": "Cellular ROS measurement (DCFH-DA)", "conditions": "5, 10 and 20 μM, 24 h, Huh7, DCFH-DA staining", "description": "Reactive oxygen species (ROS) play a crucial role in inducing cell death and inhibiting cell growth and proliferation. To investigate the impact of compounds 5e and 5p on ROS generation, various cancer cells were treated with 5e or 5p for 24 h. Subsequently, cells were stained with DCFDA [26], and ROS levels were visualized using a fluorescent microscope (Thermo, Beijing, China).\nHuh7 cells were cultured in 96-well plates in a density of 5 × 10^3 cells/well. Different concentrations (0, 5, 10 and 20 μM) of 5e or 5p were added to cells, respectively, for 24 h. After treatment, cells were stimulated with 10 μM DCFH-DA for 30 min in 37 °C and then observed and photographed using the fluorescent microscope."}, "Huh7 cells [3]": {"system": "Huh7 cells", "assay": "Plate clone formation assay", "conditions": "0, 2, 4, 8, 16, 32 μM, 48 h", "description": "To further assess the anti-proliferative activity of dolutegravir derivatives, LIVE/DEAD staining was conducted. Huh7 cells were treated with 5 μM or 10 μM of 5e and 5p for 24 h, followed by live and dead cell imaging and quantification. […] This may be attributed to significant cell proliferation suppression at 10 μM concentration, leading to a limited number of viable cells. Furthermore, to validate the impact of dolutegravir derivatives on cell proliferation, a plate clone formation assay was performed. Cells were exposed to various concentrations (0, 2, 4, 8, 16, and 32 μM) of 5e or 5p.\nHuh7 cells were seeded into 6-well plates at a density of 100–500 cells/well. After 10 days culture, cells were added with 5e or 5p at different concentrations (0, 2 μM, 4 μM, 8 μM, 16 μM, 32 μM) for 48 h. Then, cells were fixed by 4% paraformaldehyde and stained by Giemsa dye. An optical microscope was used to photograph cells and the clone numbers were counted."}}, "data": [{"compound": "COc1c2n(cc(C(=O)Nc3cccc(-c4cn(-c5cccc(C(F)(F)F)c5)nn4)c3)c1=O)CC1OCCC(C)N1C2=O", "note": "(stereo not shown) [Compound 5p]", "values": [{"measurement": "LC3 protein expression", "setting": "LC3", "result": "significant increase in expression"}, {"measurement": "effect on S phase of cell cycle", "setting": "Huh7 cells [1]", "result": "clearly decreased phase of S"}, {"measurement": "ROS generation", "setting": "Huh7 cells [2]", "result": "significant increase in ROS generation"}, {"measurement": "plate clone formation", "setting": "Huh7 cells [3]", "result": "dose-dependent anti-proliferative activity"}]}]}
